Assays:
spleen lymphocytes = details: cited from earlier work
[1] = system: infiltration of the lung tissue; assay: Morphometric peribronchial and perivascular infiltration of lung tissue, ovalbumin asthma model; format: in vivo, mice of the Balb/C line; details: age group not given
Description: Female, non-pathogenic mice of the Balb/C line (“Pushchtino” laboratory animal breeders) were kept under conditions of an SPF-vivarium at a constant temperature, 12-hour day/night cycle, and received sterile feed and water ad libitum. In two series of experiments, mice from 6-8 weeks and 18-20 weeks of age were used at the beginning of the experiment, respectively. The animals were immunized twice at 5-day intervals with an ovalbumin solution (Sigma) in an adjuvant based on ammonium sulfate at a dosage of 8 μg per mouse. SCV-07 was administered intra-abdominally in a volume of 200 μL at a dosage of 0.1 or 1.0 μg/kg in PBS once a day from 6 through 11 days after the first immunization. The control group received physiological saline on the same days. Each group comprised 6 to 10 animals. On the 12th, 16th and 20th days after the first immunization, the animals were then placed in a hermetic box, in which an aerosol of 1% ovalbumin solution (OvA) in PBS was generated with an ultrasonic nebulizer LD-207U (Little Doctor) for 1 minute with continuous mixing of air. The duration of exposure of the animals to the aerosol was 15 minutes. Analysis of the severity of experimental allergic asthma was carried out 24 hours after the last aerosol exposure. […] Sections of […] were prepared. The sections were stained with hematoxylin-eosin to evaluate the intensity of cell infiltration and Schiff-iodic acid to count the number of goblet cells. Quantitative evaluation of the peribronchial and perivascular infiltration was accomplished morphometrically with the Scion Image program package. Three bronchi and three vessels were analyzed on sections of the lungs from each animal. The area of the infiltration was calculated as the difference between the area of the tissue containing bronchi or vessels and the infiltration surrounding it, and the area of the vessel or bronchus itself. The indices of infiltration were calculated as the ratio of the area of the infiltration to the area of the vessel or bronchus.

[2] = system: experimental allergic asthma (BAL cells); assay: Cytological composition of bronchoalveolar lavage in allergic ovalbumin asthma model; format: in vivo, mice of the Balb/C line; details: for Total cellularity of the BAL: animals 6-8 weeks, mean±SD; for Eosinophils, % of BAL cells / Lymphocytes, % of BAL cells / Monocytes/Macrophages, % of BAL cells / Neutrophils, % of BAL cells: animals 6 to 8 weeks; for Eosinophils in BAL, thousand / Lymphocytes in BAL, thousand / Monocytes/Macrophages in BAL, thousand / Neutrophils in BAL, thousand / Total number of cells in the lavages: animals 18 to 20 weeks
Description: Female, non-pathogenic mice of the Balb/C line (“Pushchtino” laboratory animal breeders) were kept under conditions of an SPF-vivarium at a constant temperature, 12-hour day/night cycle, and received sterile feed and water ad libitum. In two series of experiments, mice from 6-8 weeks and 18-20 weeks of age were used at the beginning of the experiment, respectively.
The animals were immunized twice at 5-day intervals with an ovalbumin solution (Sigma) in an adjuvant based on ammonium sulfate at a dosage of 8 μg per mouse. SCV-07 was administered intra-abdominally in a volume of 200 μL at a dosage of 0.1 or 1.0 μg/kg in PBS once a day from 6 through 11 days after the first immunization. The control group received physiological saline on the same days. Each group comprised 6 to 10 animals. On the 12th, 16th and 20th days after the first immunization, the animals were then placed in a hermetic box, in which an aerosol of 1% ovalbumin solution (OvA) in PBS was generated with an ultrasonic nebulizer LD-207U (Little Doctor) for 1 minute with continuous mixing of air. The duration of exposure of the animals to the aerosol was 15 minutes. Analysis of the severity of experimental allergic asthma was carried out 24 hours after the last aerosol exposure.
The mice were killed by intra-abdominal administration of a lethal dose of sodium barbital. Bronchoalveolar lavage (BAL) was obtained by washing the lungs through the trachea with 1 mL PBS solution. The BAL cells were precipitated by centrifuging, the precipitate was resuspended, the cell concentration was counted in a Goryaev chamber, and smears were prepared. The smears were dried, fixed and stained with Romanovskii dye. The cytological composition of the bronchoalveolar lavage was investigated under a light microscope with oil immersion (eyepiece×16, objective×100). The numbers of monocyte/macrophages, neutrophils, eosinophils and lymphocytes per 200 cells were counted, in which no less than 5 visual fields were viewed. The relative number of cells of each cell population was expressed as the percentage of the total number of cells.
The statistical processing of the results was carried out with the Microsoft Excel and SPSS programs for Windows v.13. The normality of the distribution was determined with the Kholmogorov-Smimov criterion. To evaluate the significance of the differences between groups for normally distributed values, we used the two-sided Student test with unequal deviations, for non-normally distributed differences—the Mann-Whitney test. The differences were considered significant at p<0.05. Unless otherwise stated, the data are presented in the form of means±standard deviation.

[3] = system: goblet cells in the epithelium of the bronchi; assay: Percentage of goblet cells in the epithelium of the bronchi, ovalbumin asthma model; format: in vivo, mice of the Balb/C line
Description: Female, non-pathogenic mice of the Balb/C line (“Pushchtino” laboratory animal breeders) were kept under conditions of an SPF-vivarium at a constant temperature, 12-hour day/night cycle, and received sterile feed and water ad libitum. In two series of experiments, mice from 6-8 weeks and 18-20 weeks of age were used at the beginning of the experiment, respectively. The animals were immunized twice at 5-day intervals with an ovalbumin solution (Sigma) in an adjuvant based on ammonium sulfate at a dosage of 8 μg per mouse. SCV-07 was administered intra-abdominally in a volume of 200 μL at a dosage of 0.1 or 1.0 μg/kg in PBS once a day from 6 through 11 days after the first immunization. The control group received physiological saline on the same days. Each group comprised 6 to 10 animals. On the 12th, 16th and 20th days after the first immunization, the animals were then placed in a hermetic box, in which an aerosol of 1% ovalbumin solution (OvA) in PBS was generated with an ultrasonic nebulizer LD-207U (Little Doctor) for 1 minute with continuous mixing of air. The duration of exposure of the animals to the aerosol was 15 minutes. […] The number of goblet and epithelial cells on the sections of the bronchi were calculated in no less than five visual fields on sections from the lungs from each animal and expressed as the percentage of the total number of cells.

Compound: N[C@H](CCC(=O)N[C@@H](Cc1c[nH]c2ccccc12)C(=O)O)C(=O)O [SCV-07, γ-D-glutamyl-L-tryptophan]
- Con-A-induced interleukin-2 (IL-2) production by spleen lymphocytes (spleen lymphocytes): increases
- IL-2 receptor expression by spleen lymphocytes (spleen lymphocytes): increases
- Index of peribronchial infiltration, conventional units ([1]; 0.1 μg/kg): 0.39 ± 0.19 conventional units
- Index of perivascular infiltration, conventional units ([1]; 0.1 μg/kg): 1.67 ± 1.08 conventional units
- Index of peribronchial infiltration, conventional units ([1]; 1 μg/kg): 0.35 ± 0.14 conventional units
- Index of perivascular infiltration, conventional units ([1]; 1 μg/kg): 1.48 ± 1.02 conventional units
- Total cellularity of the BAL ([2]; SCV-07 0.1 μg/kg intra-abdominally): 1.96±0.99 million
- Total cellularity of the BAL ([2]; SCV-07 1 μg/kg): 2.21±1.16 million
- Eosinophils, % of BAL cells ([2]; 0.1 μg/kg): 57.4 ± 21.3%
- Lymphocytes, % of BAL cells ([2]; 0.1 μg/kg): 0.4 ± 0.5%
- Monocytes/Macrophages, % of BAL cells ([2]; 0.1 μg/kg): 41.2 ± 20.7%
- Neutrophils, % of BAL cells ([2]; 0.1 μg/kg): 0.9 ± 0.8%
- Eosinophils, % of BAL cells ([2]; 1 μg/kg): 56.7 ± 9.5 %
- Lymphocytes, % of BAL cells ([2]; 1 μg/kg): 0.6 ± 0.7%
- Monocytes/Macrophages, % of BAL cells ([2]; 1 μg/kg): 40.6 ± 9.4 %
- Neutrophils, % of BAL cells ([2]; 1 μg/kg): 2.1 ± 0.9%
- Eosinophils in BAL, thousand ([2]; 0.1 μg/kg): 456 ± 144 thousand
- Lymphocytes in BAL, thousand ([2]; 0.1 μg/kg): 22 ± 11 thousand
- Monocytes/Macrophages in BAL, thousand ([2]; 0.1 μg/kg): 629 ± 134 thousand
- Neutrophils in BAL, thousand ([2]; 0.1 μg/kg): 17 ± 14 thousand
- Total number of cells in the lavages ([2]; 0.1 μg/kg, p<0.05 vs control): 1.12±0.15 million
- Eosinophils in BAL, thousand ([2]; 1 μg/kg): 690 ± 247 thousand
- Lymphocytes in BAL, thousand ([2]; 1 μg/kg): 26 ± 9 thousand
- Monocytes/Macrophages in BAL, thousand ([2]; 1 μg/kg): 586 ± 144 thousand
- Neutrophils in BAL, thousand ([2]; 1 μg/kg): 18 ± 10 thousand
- Total number of cells in the lavages ([2]; 1 μg/kg): 1.32±0.23 million
- Reduction in the percentage of goblet cells in the epithelium of the bronchi vs control ([3]; 0.1 μg/kg, significant vs control): more than two-fold reduction
- % goblet cells of total number of cells (median, minimum-maximum) ([3]; animals 6 to 8 weeks, 1 μg/kg): 36.5 (3-92) %

Source: patent US20100204295A1, “TREATMENT OF ALLERGIC DISEASE WITH IMMUNOMODULATOR COMPOUNDS” (SCICLONE PHARMACEUTICALS, INC., priority 2007, published 2010)
